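Method: 48-hour compound exposure of cells in 96-well plates, five concentrations, linear interpolation of endpoints. Abbreviation: GI50, concentration required for 50% inhibition of growth. Definition used: TGI = concentration required for complete inhibition of growth.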
Assays:
Experiment in all cases: growth of human tumour cells (NCI), 48 h
[1] = tested on: ACHN renal
[2] = tested on: HCC-2998 colon
[3] = tested on: OVCAR-8 ovarian
[4] = tested on: NCI-H460 lung
[5] = tested on: CCRF-CEM leukemia
[6] = tested on: SR leukemia
[7] = tested on: OVCAR-5 ovarian
[8] = tested on: HOP-92 NSCLC
[9] = tested on: HS 578T breast
[10] = tested on: U251 CNS
[11] = tested on: UO-31 renal
[12] = tested on: BT-549 breast
[13] = tested on: OVCAR-3 ovarian
[14] = tested on: UACC-62 melanoma
[15] = tested on: SK-OV-3 ovarian
[16] = tested on: EKVX NSCLC
[17] = tested on: 786-0 renal
[18] = tested on: SN12C renal
[19] = tested on: MCF7 breast
[20] = tested on: RPMI-8226 leukemia
[21] = tested on: SK-MEL-28 melanoma
[22] = tested on: SF-268 CNS
[23] = tested on: LOX IMVI melanoma
[24] = tested on: CAKI-1 renal
[25] = tested on: MOLT-4 leukemia
[26] = tested on: RXF 393 renal
[27] = tested on: OVCAR-4 ovarian
[28] = tested on: TK-10 renal
[29] = tested on: KM12 colon
[30] = tested on: SNB-19 CNS
[31] = tested on: K-562 leukemia
[32] = tested on: COLO 205 colon
[33] = tested on: NCI-H522 lung
[34] = tested on: PC-3 prostate
[35] = tested on: HT29 colon
[36] = tested on: SF-295 CNS
[37] = tested on: MDA-MB-231 breast
[38] = tested on: HCT-15 colon
[39] = tested on: NCI-H226 lung
[40] = tested on: NCI/ADR-RES ovarian
[41] = tested on: IGROV1 ovarian
[42] = tested on: A498 renal
[43] = tested on: SK-MEL-5 melanoma
[44] = tested on: MALME-3M melanoma
[45] = tested on: SK-MEL-2 melanoma
[46] = tested on: SW-620 colon
[47] = tested on: SNB-75 CNS
[48] = tested on: HL-60(TB) leukemia
[49] = tested on: A549 NSCLC
[50] = tested on: NCI-H23 lung
[51] = tested on: DU-145 prostate
[52] = tested on: HOP-62 NSCLC

`CC(=O)/C(=C\c1ccc(Cl)cc1)c1ccccc1` gave a GI50 [1] of 548 nM, a TGI [1] of over 70000 nM and a GI50 [2] of 328 nM. For the same compound, the TGI [2] was over 68900 nM, the GI50 [3] was 304 nM and the TGI [3] was over 100000 nM. It also gave a GI50 [4] of 84.5 nM, a TGI [4] of 13500 nM and a GI50 [5] of 53.4 nM. It also gave a TGI [5] of over 100000 nM, a GI50 [6] of 41.5 nM and a TGI [6] of over 49700 nM. It also gave a TGI [7] of over 100000 nM, a GI50 [8] of 120 nM and a TGI [8] of over 26200 nM. For the same compound, the GI50 [9] was 83.2 nM, the TGI [9] was over 100000 nM and the GI50 [10] was 84.2 nM. For the same compound, the TGI [10] was over 100000 nM, the GI50 [11] was 1020 nM and the TGI [11] was over 57900 nM. It also gave a GI50 [12] of 107 nM, a TGI [12] of 946 nM and a GI50 [13] of 38.3 nM. It also gave a TGI [13] of 229 nM, a GI50 [14] of 47.3 nM and a TGI [14] of over 93800 nM. The GI50 [15] was 94.2 nM, the TGI [15] was over 100000 nM and the GI50 [16] was 1820 nM. The TGI [16] was over 100000 nM, the GI50 [17] was 128 nM and the TGI [17] was over 100000 nM. It also gave a GI50 [18] of 541 nM, a TGI [18] of over 100000 nM and a GI50 [19] of 37.5 nM. The TGI [19] was over 100000 nM, the GI50 [20] was 133 nM and the TGI [20] was 25900 nM. The GI50 [21] was 2050 nM, the TGI [21] was over 100000 nM and the GI50 [22] was 201 nM. It also gave a TGI [22] of over 100000 nM, a GI50 [23] of 123 nM and a TGI [23] of 16200 nM. It also gave a GI50 [24] of 549 nM, a TGI [24] of over 100000 nM and a GI50 [25] of 124 nM. The TGI [25] was over 100000 nM, the GI50 [26] was 57.9 nM and the GI50 [27] was 382 nM. It also gave a TGI [27] of over 100000 nM, a GI50 [28] of 2760 nM and a TGI [28] of over 66600 nM. The GI50 [29] was 54 nM, the TGI [29] was over 100000 nM and the GI50 [30] was 344 nM. The TGI [30] was over 100000 nM, the GI50 [31] was 50.1 nM and the TGI [31] was over 100000 nM. For the same compound, the GI50 [32] was 141 nM, the TGI [32] was 474 nM and the GI50 [33] was 74.5 nM. The TGI [33] was 3260 nM, the GI50 [34] was 85.2 nM and the TGI [34] was over 100000 nM. For the same compound, the GI50 [35] was 140 nM, the TGI [35] was over 61700 nM and the GI50 [36] was 54 nM. It also gave a TGI [36] of over 100000 nM, a GI50 [37] of 212 nM and a TGI [37] of over 100000 nM. For the same compound, the GI50 [38] was 331 nM, the TGI [38] was over 100000 nM and the GI50 [39] was 2300 nM. It also gave a TGI [39] of over 90100 nM, a GI50 [40] of 2070 nM and a TGI [40] of over 100000 nM. For the same compound, the GI50 [41] was 344 nM, the TGI [41] was over 100000 nM and the GI50 [42] was 30.9 nM. The TGI [42] was 378 nM, the GI50 [43] was 81.8 nM and the TGI [43] was 1140 nM. It also gave a GI50 [44] of 43200 nM, a TGI [44] of over 100000 nM and a GI50 [45] of 141 nM. It also gave a TGI [45] of over 100000 nM, a GI50 [46] of 44.5 nM and a TGI [46] of over 64600 nM. It also gave a GI50 [47] of 69.1 nM, a TGI [47] of over 100000 nM and a GI50 [48] of 30.7 nM. For the same compound, the TGI [48] was 117 nM, the GI50 [49] was 255 nM and the TGI [49] was over 100000 nM. For the same compound, the GI50 [50] was 260 nM, the TGI [50] was over 100000 nM and the GI50 [51] was 285 nM. The TGI [51] was over 100000 nM, the GI50 [52] was 179 nM and the TGI [52] was over 100000 nM.
